# According to US20110144014A1, “CYTOKINE RECEPTOR MODULATORS AND USES THEREOF” (CENTRE HOSPITALIER UNIVERSITAIRE SAINTE-JUSTINE, priority 2005, published 2011):
# Where a SMILES comes first, the peptide text is derived from it. [ ]: non-standard residue; d: D form.
# Columns and labels:
# [1] = tested on: HEK293 cells; assay: Binding of I125-API-101.10 in HEK293 cells not containing IL-1R
# Source text: Thymocytes freshly isolated from rat thymus were resuspended at a concentration of 10^7 cell/ml in PBS (phosphate buffered saline) buffer pH 8.0 (reaction buffer) and washed three times with ice-cold reaction buffer. The reaction mixture for each sample contained: 10^6 cells and 10^7 cpm of 125API-101.10. One sample also contained […] of cold API-101.10 peptide. In the negative control HEK-293 cells containing a negligible amount of IL-1R were used. Each sample volume was then raised to 250 μl with reaction buffer. Samples were incubated at room temperature and/or 37° for 45 minutes to allow peptide binding. The non-permeable cross-linker BS3 (Bis(sulfosuccinimidyl)suberate) was then added to a final concentration of 2.5 mM and samples were incubated at 4° C. for 30 minutes to minimize active internalization of BS3 (11.4 Å) (Pierce) (Partis, J. Prot. Chem. 293:263-277, 1983; Cox et al., J. Immunol. 145:1719-1726, 1990; and Knoller et al., J. Biol. Chem. 266:2795-2804, 1991). The reaction was quenched with 20 mM TRIS pH 7.5 for 15 minutes at room temperature. Cells were centrifuged at 4000 rpm for 10 minutes, lysed for 30 minutes on ice with 150 μl of RIPA buffer (50 mM Tris HCl pH7.4; 150 mM NaCl; 1 mM EDTA; 2 mM Na3VO4; 1 mM NaF; 1% NP-40; 0.25% Nadeoxycholate). […] Radioactivity was determined is every cell lysate with a Packard CobraII autogamma counter.
# [2] = tested on: IL-1R/IL-1RacP; assay: IL-1-induced PGE2 synthesis in endothelial cells; format: cell-based, porcine
# Description: Efficiencies and inhibitory activities of the mutated peptides were determined by measuring the inhibition of IL-1-induced PGE2 synthesis. […] All peptides were tested at concentration 10^−6M.
# The arginine of API-101.10 (SEQ ID NO: 10) was replaced by citrulline—to change from a guanidine to a urea group near the N-terminal. Other mutations (e.g. E to Q in API-101.102 and API-101.103) and a truncated peptide at the C-terminal (API-101.108) were also performed to improve the potency and the efficacy of the peptides. Measurement of PGE2 was performed with piglet brain microvessel endothelial cells and WI-38 human fibroblasts. Some of the mutations were advantageous and gave major increases in potency.
# IL-1-induced PGE2 synthesis assay on endothelial cells was used as a screening assay for the peptidomimetics.
# [3] = tested on: PMA-induced ear skin inflammation; assay: PMA-induced skin dermatitis of rat ears; format: in vivo; conditions: topical
# Description: To verify the efficacy of a topical application of API-101.10 in a skin model of inflammation, 10 μl of 0.05% (in acetone) of the irritating agent PMA was applied on ears of 5 weeks old CD-1 male […] (Charles River) to induce contact dermatitis. The right ear received the vehicle only and left ear received the peptide or IL-1Ra analog Kineret® (Amgen). Ten μl of a final concentration of 10^−5M peptide diluted in PEG was applied 45 minutes and 4 hours after the induction of the inflammation with PMA. The commercial analog of IL-1R antagonist (IL-Ra), Kineret® was applied as a positive control at a concentration of 50 μg/10 μl of PEG. The drug was applied with a pipet tip adapted for the viscosity of the solution. Eighteen hours after the peptide treatment animals were sacrificed and ears were cut, weighed and their […] was measured with a caliper. Ear tumefaction (%) was determined: […] where a=thickness of left treated ear and b=thickness of right control ear.
smiles,measurement,setting,value
"CC(C)C[C@@H](NC(=O)[C@@H](CCC(=O)O)NC(=O)[C@H](NC(=O)[C@H](NC(=O)[C@@H](Cc1ccc(O)cc1)NC(=O)[C@H](N)CCCNC(=N)N)[C@H](C)O)C(C)C)C(=O)N[C@H](C)C(N)=O [API-101.10, RYTVELA] (H-[dR][dY][dT][dV][dE][dL][dA]-NH2; N-terminus and C-terminus assumed)",binding in cells not containing IL-1R,[1],does not occur
same,IC50,[2],1.2 nM
same,ear weight compared with PMA-induced inflamed ear,[3]; 10^−5M in PEG,reduction in weight
same,prevention of ear tumefaction,"[3]; 10 μl of 10^−5M in PEG, 45 min and 4 h after PMA",50%
